Measured values from the supplement of paper PMC10307832.

Columns and labels:
Assay in all cases: relative viability (nuclei count vs DMSO), 5 days (fraction); higher = more cells survive
Axitinib + Luminespib = compound: CNC(=O)c1ccccc1Sc1ccc2c(/C=C/c3ccccn3)n[nH]c2c1 [Axitinib] + CCNC(=O)c1noc(-c2cc(C(C)C)c(O)cc2O)c1-c1ccc(CN2CCOCC2)cc1 [Luminespib] (partner 0.01 µM)
Outline: (§1)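 A single step with final 0.05% Triton X-100, 1% formaldehyde and 1 ug/ml Hoechst fixed the cells and stained nuclei 5 days after treatment. Lung cancer cell lines in 1536-well plates had been treated by pin tool the day after seeding with one drug alone or a fixed anchor-drug dose plus five library-drug doses (not always all listed) in √10 steps, and nuclei were counted on 4× images. Relative viability is the ratio of nuclei in treated wells to nuclei in vehicle wells, taken as the median of duplicate plates.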

Bemcentinib + Luminespib = compound: Nc1nc(Nc2ccc3c(c2)CC[C@@H](N2CCCC2)CC3)nn1-c1cc2c(nn1)-c1ccccc1CCC2 [Bemcentinib] + CCNC(=O)c1noc(-c2cc(C(C)C)c(O)cc2O)c1-c1ccc(CN2CCOCC2)cc1 [Luminespib] (partner 0.01 µM)
Outline: as §1

Bemcentinib + Crizotinib = compound: Nc1nc(Nc2ccc3c(c2)CC[C@@H](N2CCCC2)CC3)nn1-c1cc2c(nn1)-c1ccccc1CCC2 [Bemcentinib] + C[C@@H](Oc1cc(-c2cnn(C3CCNCC3)c2)cnc1N)c1c(Cl)ccc(F)c1Cl [Crizotinib] (partner 1 µM)
Outline: as §1

Bemcentinib + Phenformin = compound: Nc1nc(Nc2ccc3c(c2)CC[C@@H](N2CCCC2)CC3)nn1-c1cc2c(nn1)-c1ccccc1CCC2 [Bemcentinib] + N=C(N)NC(=N)NCCc1ccccc1 [Phenformin] (partner 250 µM)
Outline: as §1

Cell Line | relative viability (Axitinib + Luminespib; first compound 0.005 µM) | relative viability (Axitinib + Luminespib; first compound 0.01581 µM) | relative viability (Axitinib + Luminespib; first compound 0.05 µM) | relative viability (Axitinib + Luminespib; first compound 0.1581 µM) | relative viability (Axitinib + Luminespib; first compound 0.5 µM) | relative viability (Bemcentinib + Luminespib; first compound 0.04 µM) | relative viability (Bemcentinib + Luminespib; first compound 0.1265 µM) | relative viability (Bemcentinib + Luminespib; first compound 0.4 µM) | relative viability (Bemcentinib + Luminespib; first compound 1.265 µM) | relative viability (Bemcentinib + Luminespib; first compound 4 µM) | relative viability (Bemcentinib + Crizotinib; first compound 0.04 µM) | relative viability (Bemcentinib + Crizotinib; first compound 0.1265 µM) | relative viability (Bemcentinib + Crizotinib; first compound 0.4 µM) | relative viability (Bemcentinib + Crizotinib; first compound 1.265 µM) | relative viability (Bemcentinib + Crizotinib; first compound 4 µM) | relative viability (Bemcentinib + Phenformin; first compound 0.04 µM) | relative viability (Bemcentinib + Phenformin; first compound 0.1265 µM) | relative viability (Bemcentinib + Phenformin; first compound 0.4 µM) | relative viability (Bemcentinib + Phenformin; first compound 1.265 µM) | relative viability (Bemcentinib + Phenformin; first compound 4 µM)
PC-3 [JPC-3] | 0.663 | 0.653 | 0.712 | 0.739 | 0.779 | 0.722 | 0.695 | 0.712 | 0.69 | 0.674 | 0.959 | 1.03 | 1 | 0.974 | 1.09 | 0.477 | 0.454 | 0.473 | 0.497 | 0.448
HCC-366 |  |  |  |  |  |  |  |  |  |  | 0.524 | 0.902 | 0.583 | 0.629 | 0.383 | 0.604 | 0.63 | 0.638 | 0.653 | 0.587
NCI-H2405 | 0.863 | 0.809 | 0.839 | 0.779 | 0.866 | 0.659 | 0.716 | 0.609 | 0.754 | 0.656 | 0.826 | 0.922 | 0.87 | 0.853 | 0.914 | 0.409 | 0.412 | 0.385 | 0.372 | 0.376
LU99A | 0.239 | 0.265 | 0.241 | 0.302 | 0.303 | 0.19 | 0.289 | 0.234 | 0.346 | 0.24 | 0.549 | 0.629 | 0.542 | 0.574 | 0.532 | 0.806 | 0.856 | 0.835 | 0.801 | 0.827
LCLC-97TM1 | 0.671 | 0.826 | 0.663 | 0.672 | 0.722 | 0.684 | 0.793 | 0.726 | 0.866 | 0.986 | 0.267 | 0.475 |  | 0.376 | 0.259 | 0.471 | 0.483 | 0.407 | 0.383 | 0.396
A-427 | 0.998 | 1.03 | 1.03 | 0.926 | 0.919 | 1.04 | 1.09 | 0.934 | 0.822 | 0.737 |  | 0.95 | 0.843 | 0.931 | 0.863 | 0.305 | 0.308 | 0.332 | 0.337 | 0.258
EMC-BAC-2 | 1.27 | 1.12 | 1.19 | 1.21 | 1.25 | 1.24 | 1.29 | 1.16 | 1.19 | 1.2 | 0.788 | 0.801 | 0.776 | 0.836 | 0.831 | 0.515 | 0.516 | 0.556 | 0.507 | 0.514
NCI-H2228 | 0.142 | 0.118 | 0.147 | 0.174 | 0.138 | 0.128 | 0.152 | 0.159 | 0.111 | 0.134 |  | 0.551 | 0.599 | 0.467 | 0.451 | 0.157 | 0.329 | 0.395 | 0.346 | 0.295
IA-LM |  |  |  |  |  |  |  |  |  |  | 0.777 | 0.654 | 0.947 | 0.752 | 0.842 |  |  |  |  | 
